For this experiment, the system named is human embryonic stem cell derived neural stem cells (NSCs). Kind of experiment: Neurogenesis assay: neural stem cell proliferation assay. The following applies: 96 h, compound concentration at which 150% activity of control (100%) is reached, increase in cells based on ATP levels (CellTiterGlo), 4 days incubation, dose response 8 μM to 8 nM. The protocol:
Neural Stem Cell Proliferation Assay
Neurogenic properties of small molecules are determined based on the proliferation of human embryonic stem cell derived neural stem cells (NSCs) which were derived via a dual smad inhibition as previously described (Chambers, S. M., et al., Highly efficient neural conversion of human ES and iPS cells by dual inhibition of SMAD signaling, Nature biotechnology, 2009 27(3): p. 275-80.).
Compounds response is measured by the increase in cells based on ATP levels (Promega:CellTiterGlo®) after an incubation period of 4 days. NSCs are thawed and expanded over 3 passages. On the 14th day, NSCs are seeded in Polyornithin/Laminin coated 384 well plates at a cell density of 21,000 cells/cm^2 in a media volume of 38 μl.
4 hours after cell seeding, compound solutions are added at a volume of 2 μl. Stock solutions of the compounds (water, 5% DMSO) are diluted to obtain a dose response (11 points, dilution factor is 2), ranging from 8 μM to 8 nM. Controls are run to consistently determine the neurogenic properties of the cells:
Negative (neutral) control is cell culture Media (final DMSO concentration: 0.25%).
1. cell culture Media+100 ng/ml FGF2 (final DMSO concentration: 0.1%)
2. cell culture Media+20 ng/ml EGF (final DMSO concentration: 0.1%)
3. cell culture Media+100 ng/ml Wnt3a (final DMSO concentration: 0.1%)
After 4 days incubation at 37° C., 5% CO2, the amount of ATP per well is quantified. The ATP concentration is proportional to the cell number. ATP is quantified by using the Promega CellTiterGlo® kit. The CellTiterGlo® reagents contain a cell lysis buffer, a thermo stable luciferase (UltraGlo™ recombinant luciferase), magnesium and luciferin. Luciferin reacts with ATP producing oxyluciferin, AMP and light. The luminescence signal is proportional to the ATP content.
The value of negative (neutral) control is determined for each assay plate by taking the average of 16 negative control wells. The neurogenic compound response is calculated for each compound as (compound/Negative Control)*100. The values of EC150 from the dose response curve are determined for each test compound. The EC150 is the compound concentration at which 150% activity of control (100%) is reached.
In turn, `COc1cc(N2CCN(Cc3cccc(C)c3)C2=O)ccc1-c1cn[nH]c1` [Example 35, 1-[3-Methoxy-4-(1H-pyrazol-4-yl)phenyl]-3-(m-tolylmethyl)imidazolidin-2-one] had an EC (150% of control) of 2.65 µM.

Turning to `COc1cc(N2CCC(Cc3cccc(Cl)c3)C2=O)ccc1-c1cn[nH]c1` (stereo not shown) [Example 36, 3-[(3-Chlorophenyl)methyl]-1-[3-methoxy-4-(1H-pyrazol-4-yl)phenyl]pyrrolidin-2-one], the EC (150% of control) came to 1.65 µM.

As to `COc1cc(N2CCC(Cc3ccccc3Cl)C2=O)ccc1-c1cn[nH]c1` (stereo not shown) [Example 37, 3-[(2-Chlorophenyl)methyl]-1-[3-methoxy-4-(1H-pyrazol-4-yl)phenyl]pyrrolidin-2-one], the EC (150% of control) is 1.13 µM.

Consider `COc1cc(N2CCC(c3cccc(Cl)c3)C2=O)ccc1-c1cnco1` (stereo not shown) [Example 38, 3-(3-Chlorophenyl)-1-[3-methoxy-4-(1,3-oxazol-5-yl)phenyl]pyrrolidin-2-one], for which the EC (150% of control) is 1.35 µM.

For `COc1cccc(CN2CCN(c3ccc(-c4cn[nH]c4)cc3OC)C2=O)c1` [Example 39, 1-[(3-Methoxyphenyl)methyl]-3-[2-methoxy-4-(1H-pyrazol-4-yl)phenyl]imidazolidin-2-one], the EC (150% of control) stood at 0.393 µM.

As to `COc1cccc(CC2CCN(c3ccc(-c4cn[nH]c4)c(OC)c3)C2=O)c1` (stereo not shown) [Example 40, 3-[(3-Methoxyphenyl)methyl]-1-[3-methoxy-4-(1H-pyrazol-4-yl)phenyl]pyrrolidin-2-one], the EC (150% of control) worked out at 0.334 µM.

`COc1cc(N2CCC(c3ccccc3OC)C2=O)ccc1-c1cnco1` (stereo not shown) [Example 41, 1-[3-Methoxy-4-(1,3-oxazol-5-yl)phenyl]-3-(2-methoxyphenyl)pyrrolidin-2-one] returned an EC (150% of control) of 2.91 µM.

`COc1ccccc1CN1CCN(c2ccc(-c3cn[nH]c3)c(OC)c2)C1=O` [Example 42, 1-[(2-Methoxyphenyl)methyl]-3-[3-methoxy-4-(1H-pyrazol-4-yl)phenyl]imidazolidin-2-one] yielded an EC (150% of control) of 0.308 µM.

`COc1cc(N2CCN(CCc3ccccc3)C2=O)ccc1-c1cn[nH]c1` [Example 43, 1-[3-Methoxy-4-(1H-pyrazol-4-yl)phenyl]-3-(2-phenylethyl)imidazolidin-2-one] registered an EC (150% of control) of 0.309 µM.

With `COc1ccccc1CCN1CCN(c2ccc(-c3cn[nH]c3)c(OC)c2)C1=O` [Example 44, 1-[2-(2-Methoxyphenyl)ethyl]-3-[3-methoxy-4-(1H-pyrazol-4-yl)phenyl]imidazolidin-2-one], the EC (150% of control) was found to be 1.98 µM.

Consider `COc1cc(N2CCN(CCc3ccccc3Cl)C2=O)ccc1-c1cn[nH]c1` [Example 45, 1-[2-(2-Chlorophenyl)ethyl]-3-[3-methoxy-4-(1H-pyrazol-4-yl)phenyl]imidazolidin-2-one], for which the EC (150% of control) was found to be 0.136 µM.

In the case of `COc1cccc(CN2CCN(c3ccc(-c4cn[nH]c4)cc3Cl)C2=O)c1` [Example 46, 1-[2-Chloro-4-(1H-pyrazol-4-yl)phenyl]-3-[(3-methoxyphenyl)methyl]imidazolidin-2-one], the EC (150% of control) is 1.83 µM.

In turn, `COc1cc(N2CCN(Cc3ccc(F)cc3)C2=O)ccc1-c1cn[nH]c1` [Example 47, 1-[(4-Fluorophenyl)methyl]-3-[3-methoxy-4-(1H-pyrazol-4-yl)phenyl]imidazolidin-2-one] had an EC (150% of control) of 0.768 µM.

Consider `COc1cc(N2CCN(Cc3cccnc3)C2=O)ccc1-c1cn[nH]c1` [Example 48, 1-[3-Methoxy-4-(1H-pyrazol-4-yl)phenyl]-3-(3-pyridylmethyl)imidazolidin-2-one], for which the EC (150% of control) was 0.119 µM.

On to `COc1cc(N2CCN(CCc3cccc(Cl)c3)C2=O)ccc1-c1cn[nH]c1` [Example 49, 1-[2-(3-Chlorophenyl)ethyl]-3-[3-methoxy-4-(1H-pyrazol-4-yl)phenyl]imidazolidin-2-one], for which the EC (150% of control) came to 1.73 µM.

In the case of `COc1cc(N2CCN(CCc3ccc(Cl)cc3)C2=O)ccc1-c1cn[nH]c1` [Example 50, 1-[2-(4-Chlorophenyl)ethyl]-3-[3-methoxy-4-(1H-pyrazol-4-yl)phenyl]imidazolidin-2-one], the EC (150% of control) came to 2.01 µM.

Turning to `CCC(c1ccccc1)N1CCN(c2ccc(-c3cn[nH]c3)c(OC)c2)C1=O` (stereo not shown) [Example 51, 1-[3-Methoxy-4-(1H-pyrazol-4-yl)phenyl]-3-(1-phenylpropyl)imidazolidin-2-one], the EC (150% of control) is 0.594 µM.

Consider `COc1cccc(C2CCN(c3ccc(-c4cnco4)cc3)C2=O)c1` (stereo not shown) [Example 52, 3-(3-Methoxyphenyl)-1-[4-(1,3-oxazol-5-yl)phenyl]pyrrolidin-2-one], for which the EC (150% of control) was determined as 0.517 µM.

As to `O=C1C(c2ccccc2)CCN1c1ccc(-c2cnco2)cc1` (stereo not shown) [Example 53, 1-[4-(1,3-Oxazol-5-yl)phenyl]-3-phenylpyrrolidin-2-one], the EC (150% of control) was determined as 2.21 µM.

Regarding `COc1cc(N2CCN(Cc3ccccc3C(F)(F)F)C2=O)ccc1-c1ccncc1` [Example 54, 1-[3-Methoxy-4-(4-pyridyl)phenyl]-3-[[2-(trifluoromethyl)phenyl]methyl]imidazolidin-2-one], the EC (150% of control) is 0.0351 µM.

For the molecule `COc1cc(N2CCN(Cc3ccncc3)C2=O)ccc1-c1ccncc1` [Example 55, 1-[3-Methoxy-4-(4-pyridyl)phenyl]-3-(4-pyridylmethyl)imidazolidin-2-one], the EC (150% of control) was 0.377 µM.

Turning to `COc1cc(N2CCC(c3cccc(C(F)(F)F)c3)C2=O)ccc1-c1cnco1` (stereo not shown) [Example 56, 1-[3-Methoxy-4-(1,3-oxazol-5-yl)phenyl]-3-[3-(trifluoromethyl)phenyl]pyrrolidin-2-one], the EC (150% of control) came to 1.86 µM.

Take `O=C1C(c2ccccc2F)CCN1c1ccc(-c2cnco2)cc1` (stereo not shown) [Example 57, 3-(2-Fluorophenyl)-1-[4-(1,3-oxazol-5-yl)phenyl]pyrrolidin-2-one]: the EC (150% of control) is 0.525 µM.

In the case of `COc1cc(N2CCC(c3ccccc3F)C2=O)ccc1-c1cnco1` (stereo not shown) [Example 58, 3-(2-Fluorophenyl)-1-[3-methoxy-4-(1,3-oxazol-5-yl)phenyl]pyrrolidin-2-one], the EC (150% of control) was determined as 0.23 µM.

On to `COc1cccc(CN2CCN(c3ccc(-c4cnco4)cc3)C2=O)c1` [Example 59, 1-[(3-Methoxyphenyl)methyl]-3-[4-(1,3-oxazol-5-yl)phenyl]imidazolidin-2-one], for which the EC (150% of control) was found to be 0.122 µM.

On to `O=C1C(c2cccc(F)c2)CCN1c1ccc(-c2cnco2)cc1` (stereo not shown) [Example 60, 3-(3-Fluorophenyl)-1-[4-(1,3-oxazol-5-yl)phenyl]pyrrolidin-2-one], for which the EC (150% of control) was found to be 0.605 µM.

`COc1cc(N2CCC(c3cccc(F)c3)C2=O)ccc1-c1cnco1` (stereo not shown) [Example 61, 3-(3-Fluorophenyl)-1-[3-methoxy-4-(1,3-oxazol-5-yl)phenyl]pyrrolidin-2-one]: the EC (150% of control) turned out to be 0.262 µM.

In turn, `COc1cc(N2CCN(Cc3ccncc3)C2=O)ccc1-c1cn[nH]c1` [Example 62, 1-[3-Methoxy-4-(1H-pyrazol-4-yl)phenyl]-3-(4-pyridylmethyl)imidazolidin-2-one] had an EC (150% of control) of 0.042 µM.

With `COc1cc(N2CCN(Cc3ccccn3)C2=O)ccc1-c1cn[nH]c1` [Example 63, 1-[3-Methoxy-4-(1H-pyrazol-4-yl)phenyl]-3-(2-pyridylmethyl)imidazolidin-2-one], the EC (150% of control) amounted to 0.255 µM.

In the case of `COc1cc(N2CCN(CC(C)c3ccccc3)C2=O)ccc1-c1cn[nH]c1` (stereo not shown) [Example 64, 1-[3-Methoxy-4-(1H-pyrazol-4-yl)phenyl]-3-(2-phenylpropyl)imidazolidin-2-one], the EC (150% of control) stood at 0.387 µM.

On to `COc1cc(N2CCN(Cc3cccc(C)c3)C2=O)ccc1-c1ccncc1` [Example 65, 1-[3-Methoxy-4-(4-pyridyl)phenyl]-3-(m-tolylmethyl)imidazolidin-2-one], for which the EC (150% of control) is 0.0298 µM.

`COc1cc(N2CCN(Cc3cccnc3)C2=O)ccc1-c1ccncc1` [Example 66, 1-[3-Methoxy-4-(4-pyridyl)phenyl]-3-(3-pyridylmethyl)imidazolidin-2-one] came in with an EC (150% of control) of 0.4 µM.

For the molecule `COc1ccccc1CN1CCN(c2ccc(-c3cnco3)c(OC)c2)C1=O` [Example 67, 1-[3-Methoxy-4-(1,3-oxazol-5-yl)phenyl]-3-[(2-methoxyphenyl)methyl]imidazolidin-2-one], the EC (150% of control) came to 0.702 µM.

Molecule `COc1cccc(CN2CCN(c3ccc(-c4cnco4)c(OC)c3)C2=O)c1` [Example 68, 1-[3-Methoxy-4-(1,3-oxazol-5-yl)phenyl]-3-[(3-methoxyphenyl)methyl]imidazolidin-2-one] came in with an EC (150% of control) of 0.316 µM.

Values taken from patent US9714239B2, “N-phenyl-lactam derivatives capable of stimulating neurogenesis and their use in the treatment of neurological disorders” (Hoffmann-La Roche Inc., priority 2014, dated 2017).
